Data set [1] has as its target T1, CYP2B6 (Homo sapiens, UniProt P20813).
T1 sequence (P20813 1-491): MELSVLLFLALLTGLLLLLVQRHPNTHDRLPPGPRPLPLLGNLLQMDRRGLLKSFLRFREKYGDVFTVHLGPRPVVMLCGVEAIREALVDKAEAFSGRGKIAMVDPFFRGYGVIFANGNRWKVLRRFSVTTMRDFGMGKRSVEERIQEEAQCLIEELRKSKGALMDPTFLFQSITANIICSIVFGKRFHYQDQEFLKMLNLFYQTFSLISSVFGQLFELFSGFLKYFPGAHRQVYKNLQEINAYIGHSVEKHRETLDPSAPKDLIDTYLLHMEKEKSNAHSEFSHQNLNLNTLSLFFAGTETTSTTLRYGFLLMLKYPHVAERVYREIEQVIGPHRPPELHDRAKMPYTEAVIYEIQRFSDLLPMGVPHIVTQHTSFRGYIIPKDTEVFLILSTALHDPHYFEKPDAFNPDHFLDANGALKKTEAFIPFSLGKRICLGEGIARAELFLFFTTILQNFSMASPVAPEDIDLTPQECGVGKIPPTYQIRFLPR
Briefly: Ketamine demethylation measured by norketamine formation. The conditions noted are these: for Km at 10 min: human, pH 7.4, Km. The format is in vitro ADME.

The target in data set [2] is T1, CYP2B6. Briefly: Ketamine demethylation measured by formaldehyde formation. The settings on record: product formaldehyde.
Data set [3] has as its target T1, CYP2B6. The conditions noted are these: human liver microsomes; cited from earlier work. For orientation: Microsomes from liver hold many membrane-bound enzymes, among them those of drug oxidation.
For data set [4] the following is noted: oral ketamine, first-pass metabolism; cited from earlier work.
[5] abbreviates: N-demethylation, product R-norketamine.
Where [6] appears, read: N-demethylation, product S-norketamine.

Read-outs that look alike come from different tables or passages of the source.

As usually defined, the Km is the concentration of substrate that gives half-maximal velocity.

As for `CN[C@@]1(c2ccccc2Cl)CCCCC1=O` [R-ketamine], the Michaelis constant (Km) in data set [1] (setting [5]) was determined as 11 ± 1 µM. In addition, the figures for the Vmax in data set [1] (setting [5]) and in data set [2] (N-demethylation) were 65 ± 1 pmol・min^−1・pmol CYP^−1 and 92 ± 2 pmol・min^−1・pmol CYP^−1, respectively. Also, the Clint is on record as 5.7 ml・min^–1・nmol P450^–1 in data set [1] (Vmax/Km, product R-norketamine) and 6.2 ml・min^–1・nmol P450^–1 in data set [2] (in vitro intrinsic clearance Vmax/Km).
For `CN[C@]1(c2ccccc2Cl)CCCCC1=O` [S-ketamine], the Michaelis constant (Km) at 10 min in data set [1] (setting [6]) was found to be 10 ± 1 µM. In addition, the Michaelis-Menten constant (Km) in data set [3] is 44 µM.
Regarding `CNC1(c2ccccc2Cl)CCCCC1=O` (stereo not shown) [ketamine, 2-(2-chlorophenyl)-2-(methylamino)cyclohexan-1-one], the results for the Km at 10 min in data set [1] (setting [5]) and in data set [1] (setting [6]) were 4 ± 1 µM and 5 ± 1 µM, respectively. Besides, in data set [4], the oral bioavailability is reported as 15%.

Values taken from PMC9121441 (Molecular pharmaceutics, 2019).
